Where “and” joins values, the source holds several entries; their conditions need not be identical. Identical values can stand only once.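 Method: 48-hour compound exposure of cells in 96-well plates, five concentrations, linear interpolation of endpoints. The concentration for 50% growth inhibition is given as GI50. TGI marks complete inhibition of growth.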
Tests used:
Assay in all cases: NCI-60 cell line screen, 48 h
A549 NSCLC = test system: A549 NSCLC
CCRF-CEM leukemia = test system: CCRF-CEM leukemia
EKVX NSCLC = test system: EKVX NSCLC
HCC-2998 colon = test system: HCC-2998 colon
HL-60(TB) leukemia = test system: HL-60(TB) leukemia
HOP-62 NSCLC = test system: HOP-62 NSCLC
MOLT-4 leukemia = test system: MOLT-4 leukemia
NCI-H522 lung = test system: NCI-H522 lung
RXF 393 renal = test system: RXF 393 renal
SK-MEL-28 melanoma = test system: SK-MEL-28 melanoma

| Structure (SMILES) | GI50 (A549 NSCLC) [µM] | TGI (A549 NSCLC) [µM] | GI50 (CCRF-CEM leukemia) [µM] | TGI (CCRF-CEM leukemia) [µM] | GI50 (EKVX NSCLC) | TGI (EKVX NSCLC) | GI50 (HCC-2998 colon) [µM] | TGI (HCC-2998 colon) [µM] | GI50 (HL-60(TB) leukemia) | TGI (HL-60(TB) leukemia) | GI50 (HOP-62 NSCLC) [µM] | TGI (HOP-62 NSCLC) [µM] | GI50 (MOLT-4 leukemia) [µM] | TGI (MOLT-4 leukemia) [µM] | GI50 (NCI-H522 lung) | TGI (NCI-H522 lung) | GI50 (RXF 393 renal) | TGI (RXF 393 renal) | GI50 (SK-MEL-28 melanoma) [µM] | TGI (SK-MEL-28 melanoma) [µM] |
| --- | --- | --- | --- | --- | --- | --- | --- | --- | --- | --- | --- | --- | --- | --- | --- | --- | --- | --- | --- | --- |
| COc1cc(/C=N/NC(=O)c2ccc(C(F)(F)F)nc2Nc2ccc(Cl)cc2C)ccc1O | 3.54 | 15.1 | 0.416 | 3.12 | 1.06 µM | 12.4 µM | 1.98 | 8.45 | 1.7 µM | 4.41 µM | 3.78 | 19.7 | 0.554 | 2.75 | 3.31 µM | 14.2 µM | 3.2 µM | 14.3 µM | 2.74 | 14.3 |
| CSc1nc2c(c(=O)[nH]1)N=C1c3ccccc3C(=O)C1C(c1ccccc1)N2 (centres undefined) | 6.98 | > 100 | 6.92 | > 100 | 12.8 µM | > 100 µM | 6.75 | > 100 | 2.51 µM | > 100 µM | 5.37 | > 100 | 5.24 | > 100 | 1.41 µM | 30.4 µM | 22 µM | > 100 µM | 3.73 | > 100 |
| CCOC(=O)[C@]1(OC(C)=O)C[C@H](OC(C)=O)[C@@H](C(F)COP(=O)(OCc2ccccc2)OCc2ccccc2)O1 (some centres undefined) | – | > 100 | – | > 100 | 26.3 µM and > 100 µM | 71.3 µM and > 100 µM | – | > 100 | 31.9 µM and > 100 µM | 86.6 µM and > 100 µM | – | > 100 | – | > 100 | 28.3 µM and > 100 µM | 93.7 µM and > 100 µM | 24.5 µM and > 100 µM | 68.2 µM and > 100 µM | – | > 100 |
| c1ccc2cc(-c3cc(-c4cc(-c5ccc6ccccc6c5)on4)no3)ccc2c1 | – | > 100 | – | > 100 | – | > 100 µM | – | > 100 | – | > 100 µM | – | > 100 | – | > 100 | – | > 100 µM | – | > 100 µM | – | > 100 |
| CC1(c2ccc(F)cc2)C(C#N)C(=O)NC(=O)C1C#N (centres undefined) | – | > 100 | – | > 100 | – | > 100 µM | – | > 100 | – | > 100 µM | – | > 100 | – | > 100 | – | > 100 µM | – | > 100 µM | – | > 100 |
| O=C1C2C(C(=O)N1OS(=O)(=O)c1ccccc1)N(Cc1ccccc1)C(=O)N2Cc1ccccc1 (centres undefined) | – | > 100 | – | > 100 | – | > 100 µM | – | > 100 | – | > 100 µM | – | > 100 | – | > 100 | – | > 100 µM | – | > 100 µM | – | > 100 |
| Cc1ccc(N=Nc2ccc(N(CCC#N)CCC#N)cc2C)c(Br)c1 | – | > 100 | – | > 100 | – | > 100 µM | – | 59.4 | – | 65.7 µM | – | 93 | – | 45.1 | – | > 100 µM | – | 46.1 µM | – | > 100 |
| NC(=O)c1sc(-n2cnc3ccccc32)cc1OCc1ccccc1Br | 6.06 | > 25 | 1.34 | > 25 | 17.9 µM | > 25 µM | 6.38 | > 25 | 1.28 µM | > 25 µM | 3.67 | > 25 | 3.56 | > 25 | 3.99 µM | 12.7 µM | 1.73 µM | > 25 µM | > 25 | > 25 |
| O=C(CC1(O)C(=O)Nc2c(Cl)cc(Cl)cc21)c1ccc(Br)cc1Br (centres undefined) | – | 57.4 | – | 3.21 | – | 34.6 µM | – | 30.6 | – | 18.1 µM | – | 36.5 | – | 17.3 | – | 8.05 µM | – | 26.2 µM | – | 27.7 |
